Results as given in publication PMC6986272 (Frontiers in Microbiology, 2020).

These compounds were tested against T1, Saccharomyces cerevisiae saccharopine dehydrogenase (SDH) (Saccharomyces cerevisiae, UniProt P38998) (assay: NADH oxidation, A340 endpoint). Conditions: 200 mM Tris pH 8.0, 600 μM NADH, α-ketoglutarate, room temperature, 15 min.
T1 construct: gene LYS1; SDH coding gene in pET30a, Ni-NTA purified, expressed in E. coli BL21(DE3), about 41 kDa
T1 sequence (P38998 2-373): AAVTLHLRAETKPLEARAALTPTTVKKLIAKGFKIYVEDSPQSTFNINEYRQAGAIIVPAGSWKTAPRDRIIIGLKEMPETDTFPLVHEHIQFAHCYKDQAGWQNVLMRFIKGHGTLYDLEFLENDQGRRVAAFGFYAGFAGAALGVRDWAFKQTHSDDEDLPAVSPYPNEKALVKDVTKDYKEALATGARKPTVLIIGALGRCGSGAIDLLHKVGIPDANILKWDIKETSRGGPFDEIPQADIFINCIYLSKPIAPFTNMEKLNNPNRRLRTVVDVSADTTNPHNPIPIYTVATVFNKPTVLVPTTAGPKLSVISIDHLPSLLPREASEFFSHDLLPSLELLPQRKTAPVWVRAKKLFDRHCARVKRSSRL
Assay type: biochemical
In the case of `NCCCC[C@H](N)C(=O)O` [L-lysine], the “NADH oxidation, A340 endpoint” value is reported as “Activity of SDH as a function of the concentration of L-lysine”.

Each compound was assayed against T2, Brucella melitensis DAPDC (diaminopimelate decarboxylase) (Brucella melitensis, UniProt Q8YJJ9) (assay: not given). Conditions: 40 µM.
T2 construct: gene lysA
T2 sequence (Q8YJJ9 1-421): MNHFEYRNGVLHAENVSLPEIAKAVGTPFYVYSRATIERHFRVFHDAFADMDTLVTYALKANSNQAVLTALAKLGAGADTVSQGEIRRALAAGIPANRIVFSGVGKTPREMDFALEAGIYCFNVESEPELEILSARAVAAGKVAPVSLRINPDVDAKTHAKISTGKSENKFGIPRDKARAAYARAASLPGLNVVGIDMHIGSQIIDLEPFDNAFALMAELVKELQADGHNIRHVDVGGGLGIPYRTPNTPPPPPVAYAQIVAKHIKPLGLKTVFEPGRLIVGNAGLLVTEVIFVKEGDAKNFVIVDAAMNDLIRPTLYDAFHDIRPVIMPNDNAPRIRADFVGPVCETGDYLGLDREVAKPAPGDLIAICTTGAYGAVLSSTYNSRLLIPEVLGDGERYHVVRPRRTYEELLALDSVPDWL
With `O.O.O=C([O-])CCNC(=O)c1ccc(N=Nc2ccc([O-])c(C(=O)O)c2)cc1.[Na+].[Na+]` [SID8, S3745] the “Inhibitory rate (%)” value was 54.83%. `CC(C)(C)C(=O)Oc1ccc(S(=O)(=O)Nc2ccccc2C(=O)NCC(=O)[O-])cc1.O.O.O.O.[Na+]` [SID9, S4666] was tested, and the “Inhibitory rate (%)” value was 52.88%.

What follows are compounds tested against T2, Brucella melitensis DAPDC (diaminopimelate decarboxylase) (assay: not given). Conditions: 200 mM Tris-HCl pH 8.0, 4 mM α-ketoglutarate, 600 μM NADH, 0.1 mM PLP, excess SDH, DAP 0-20 mM, room temperature.
`NC(CCCC(N)C(=O)O)C(=O)O` (stereo not drawn) [DAP] was tested, and the “DAPDC-SDH coupled assay, NADH A340 endpoint” value was “hyperbolic behavior of DAPDC activity as a function of DAP concentration”.

Each compound was assayed against T2, Brucella melitensis DAPDC (diaminopimelate decarboxylase) (assay: biochemical). Conditions: read-out: Inhibitory rate (%).
`C[C@H]1COc2c(N3CCN(C)CC3)c(F)cc3c(=O)c(C(=O)O)cn1c23` [SID7, levofloxacin] was tested, and the inhibition at 40 µM was 55.3%. Compound `CO[C@H]1/C=C/O[C@@]2(C)Oc3c(C)c(O)c4c(O)c(c(/C=N/N5CCN(C)CC5)c(O)c4c3C2=O)NC(=O)/C(C)=C\C=C\[C@H](C)[C@H](O)[C@@H](C)[C@@H](O)[C@@H](C)[C@H](OC(C)=O)[C@@H]1C` [SID11, rifampin] has an inhibition at 40 µM of 51.5%. In the case of `CC1COc2c(N3CCN(C)CC3)c(F)cc3c(=O)c(C(=O)O)cn1c23` (stereo not drawn) [SID16, S1940], the inhibition at 40 µM is reported as 46.7%. `COc1cc(C2Oc3ccc(C4Oc5cc(O)cc(O)c5C(=O)C4O)cc3OC2CO)ccc1O` (stereo not drawn) [SID1, S2357] was tested, and the inhibition at 40 µM was 70.3%. `Cc1cccn2c(=O)c(-c3nn[nH]n3)cnc12` [SID5, S4008] showed an inhibition at 40 µM of 63.1%. With `CCN(CCO)CCCC(C)Nc1ccnc2cc(Cl)ccc12` (racemic) [SID6, S4430] the inhibition at 40 µM was 56.1%. `Nc1nc(=S)c2[nH]cnc2[nH]1` [SID2, S1774] gave an inhibition at 40 µM of 68.7%. With `CC(=O)c1c(C)c2cnc(Nc3ccc(N4CCNCC4)cn3)nc2n(C2CCCC2)c1=O` [SID10, S1579] the inhibition at 40 µM was 52.1%. Compound `CC(C)Nc1cc(-c2c[nH]c(C(=O)N[C@H](CO)c3cccc(Cl)c3)c2)c(Cl)cn1` [SID14, ulixertinib] has an inhibition at 40 µM of 47.3%. `CCC(=O)c1c(O)cc(O)cc1O` [SID12, S4249] was tested, and the inhibition at 40 µM was 49.2%. With `Cc1nc(Nc2ncc(C(=O)Nc3c(C)cccc3Cl)s2)cc(N2CCN(CCO)CC2)n1` [SID3, dasatinib monohydrate] the inhibition at 40 µM was 67.1%. With `Cc1c(Cl)cccc1Nc1ccccc1C(=O)O` [SID20, tolfenamic acid] the inhibition at 40 µM was 44%. Work on `COc1ccc(-c2nc3ccc(C4=NNC(=O)CC4C)cc3[nH]2)cc1` (stereo not drawn) [SID15, pimobendan] yielded an inhibition at 40 µM of 46.8%. `CC(NC(C)(C)C)C(=O)c1cccc(Cl)c1` (racemic) [SID13, S2452] gave an inhibition at 40 µM of 47.7%.
